Assay results published in PubChem BioAssay AID256 (DTP/NCI, 2004).
“And” between values parts separate entries of the source, which are not always exact repeats. Equal values may be shown once. Toxic doses and inconclusive results are not listed.

Tested on: CD2F1 mice, L1210 leukemia ip, survival T/C
Assay: NCI In Vivo Anticancer Drug Screen. Data for tumor model L1210 Leukemia (intraperitoneal) in CD2F1 (CDF1) mice
Conditions: higher = longer survival
In short: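 Compound-dosed mice with transplantable tumor versus matched vehicle controls; endpoint ratio T/C reported.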

[1] = endpoint: mean survival time, dose: 100.0 mg/kg/injection, schedule: Q04DX003 (ip), vehicle: saline
[2] = endpoint: mean survival time, dose: 200.0 mg/kg/injection, schedule: Q04DX003 (ip), vehicle: saline
[3] = endpoint: mean survival time, dose: 400.0 mg/kg/injection, schedule: Q04DX003 (ip), vehicle: saline
[4] = endpoint: mean survival time, dose: 100.0 mg/kg/injection, schedule: Q01DX001 (ip), vehicle: saline
[5] = endpoint: mean survival time, dose: 200.0 mg/kg/injection, schedule: Q01DX001 (ip), vehicle: saline
[6] = endpoint: mean survival time, dose: 400.0 mg/kg/injection, schedule: Q01DX001 (ip), vehicle: saline
[7] = endpoint: mean survival time, dose: 100.0 mg/kg/injection, schedule: Q04DX003 (ip), vehicle: saline with Tween-80
[8] = endpoint: mean survival time, dose: 200.0 mg/kg/injection, schedule: Q04DX003 (ip), vehicle: saline with Tween-80
[9] = endpoint: mean survival time, dose: 400.0 mg/kg/injection, schedule: Q04DX003 (ip), vehicle: saline with Tween-80

Compound: ClCC[N+]12CC[N+](CCCl)(CC1)C2
- T/C (endpoint: mean survival time, dose: 6.25 mg/kg/injection, schedule: Q01DX009 (ip), vehicle: water): 95 % of control and 106 % of control and 109 % of control
- T/C (endpoint: mean survival time, dose: 12.5 mg/kg/injection, schedule: Q01DX009 (ip), vehicle: saline): 106 % of control [middle of 4 runs]
- T/C (endpoint: mean survival time, dose: 12.5 mg/kg/injection, schedule: Q01DX009 (ip), vehicle: water): 117 % of control and 104 % of control and 108 % of control
- T/C (endpoint: mean survival time, dose: 25.0 mg/kg/injection, schedule: Q01DX009 (ip), vehicle: saline): 110 % of control [middle of 4 runs]
- T/C (endpoint: mean survival time, dose: 25.0 mg/kg/injection, schedule: Q01DX009 (ip), vehicle: water): 115 % of control and 106 % of control and 109 % of control
- T/C (endpoint: mean survival time, dose: 50.0 mg/kg/injection, schedule: Q01DX009 (ip), vehicle: saline): 117 % of control and 102 % of control and 109 % of control
- T/C (endpoint: mean survival time, dose: 50.0 mg/kg/injection, schedule: Q01DX009 (ip), vehicle: water): 113 % of control and 119 % of control and 120 % of control
- T/C (endpoint: mean survival time, dose: 50.0 mg/kg/injection, schedule: Q04DX003 (ip), vehicle: saline): 102 % of control
- T/C (endpoint: mean survival time, dose: 66.0 mg/kg/injection, schedule: Q01DX009 (ip), vehicle: saline): 154 % of control
- T/C (endpoint: mean survival time, dose: 100.0 mg/kg/injection, schedule: Q01DX009 (ip), vehicle: saline): 116 % of control and 94 % of control
- T/C (endpoint: mean survival time, dose: 100.0 mg/kg/injection, schedule: Q01DX009 (ip), vehicle: water): 111 % of control
- T/C [1]: 102 % of control
- T/C (endpoint: mean survival time, dose: 150.0 mg/kg/injection, schedule: Q01DX009 (ip), vehicle: saline): 190 % of control
- T/C (endpoint: mean survival time, dose: 150.0 mg/kg/injection, schedule: Q04DX003 (ip), vehicle: saline): 118 % of control
- T/C (endpoint: mean survival time, dose: 200.0 mg/kg/injection, schedule: Q01DX009 (ip), vehicle: saline): 108 % of control [middle of 5 runs]
- T/C [2]: 123 % of control
- T/C (endpoint: mean survival time, dose: 300.0 mg/kg/injection, schedule: Q04DX003 (ip), vehicle: saline): 119 % of control
- T/C (endpoint: mean survival time, dose: 400.0 mg/kg/injection, schedule: Q01DX009 (ip), vehicle: saline): 121 % of control and 105 % of control
- T/C [3]: 178 % of control

Compound: CN(C)c1ccc(Cc2ccc(N(C)C)nc2)cn1
- T/C (endpoint: mean survival time, dose: 100.0 mg/kg/injection, schedule: Q01DX009 (ip), vehicle: Klucel (hydroxypropylcellulose) (HPC)): 104 % of control
- T/C (endpoint: mean survival time, dose: 200.0 mg/kg/injection, schedule: Q01DX009 (ip), vehicle: Klucel (hydroxypropylcellulose) (HPC)): 98 % of control
- T/C (endpoint: mean survival time, dose: 400.0 mg/kg/injection, schedule: Q01DX009 (ip), vehicle: Klucel (hydroxypropylcellulose) (HPC)): 92 % of control

Compound: c1ccc(P(c2cccc3ccccc23)c2cccc3ccccc23)cc1
- T/C [4]: 93 % of control
- T/C [5]: 93 % of control
- T/C [6]: 91 % of control

Compound: CCCC1([N+](=O)[O-])c2ccccc2-c2ccc([N+](=O)[O-])cc21 (stereo unspecified)
- T/C [4]: 98 % of control
- T/C [5]: 96 % of control
- T/C [6]: 92 % of control

Compound: N/N=C(\N)c1ccc2ccc3cccnc3c2n1
- T/C [1]: 89 % of control
- T/C [2]: 104 % of control
- T/C [3]: 108 % of control

Compound: O=C1OCC/C1=C1\CCCO1
- T/C [7]: 106 % of control
- T/C [8]: 101 % of control
- T/C [9]: 95 % of control

Compound: N#Cc1c(F)c(F)c(C#N)c(F)c1F
- T/C (endpoint: mean survival time, dose: 5.0 mg/kg/injection, schedule: Q04DX003 (ip), vehicle: Klucel (hydroxypropylcellulose) (HPC)): 104 % of control
- T/C (endpoint: mean survival time, dose: 10.0 mg/kg/injection, schedule: Q04DX003 (ip), vehicle: Klucel (hydroxypropylcellulose) (HPC)): 106 % of control
- T/C (endpoint: mean survival time, dose: 20.0 mg/kg/injection, schedule: Q04DX003 (ip), vehicle: Klucel (hydroxypropylcellulose) (HPC)): 102 % of control
- T/C (endpoint: mean survival time, dose: 40.0 mg/kg/injection, schedule: Q04DX003 (ip), vehicle: Klucel (hydroxypropylcellulose) (HPC)): 104 % of control

Compound: CC(C)CC(Br)C(=O)NC(CC(C)C)C(=O)O (stereo unspecified)
- T/C [7]: 95 % of control
- T/C [8]: 105 % of control
- T/C [9]: 94 % of control

Compound: CC(=O)OC(C(=O)N(c1ccccc1)c1ccccc1)c1ccccc1 (stereo unspecified)
- T/C [7]: 100 % of control
- T/C [8]: 94 % of control
- T/C [9]: 108 % of control

Compound: [Cl][Pt+2][Cl].[NH-]CC(O)C[NH-]
- T/C (endpoint: median survival time, dose: 5.0 mg/kg/injection, schedule: Q04DX003 (ip), vehicle: saline): 108 % of control
- T/C (endpoint: median survival time, dose: 10.0 mg/kg/injection, schedule: Q04DX003 (ip), vehicle: saline): 103 % of control
- T/C (endpoint: median survival time, dose: 20.0 mg/kg/injection, schedule: Q04DX003 (ip), vehicle: saline): 105 % of control
- T/C (endpoint: median survival time, dose: 40.0 mg/kg/injection, schedule: Q04DX003 (ip), vehicle: saline): 108 % of control

Compound: O=C(c1ccccc1)C1CC1C(=O)c1ccccc1 (stereo unspecified)
- T/C (endpoint: mean survival time, dose: 100.0 mg/kg/injection, schedule: Q04DX002 (ip), vehicle: saline with Tween-80): 100 % of control
- T/C (endpoint: mean survival time, dose: 200.0 mg/kg/injection, schedule: Q04DX002 (ip), vehicle: saline with Tween-80): 112 % of control
- T/C (endpoint: mean survival time, dose: 400.0 mg/kg/injection, schedule: Q04DX002 (ip), vehicle: saline with Tween-80): 100 % of control
